The results in this text go back to US20200383985A1, “Inhibitors of Protease Activated Receptor-2” (Endosome Therapeutics, Inc., priority 2017, published 2020).

Common to all, as to assay type: cell-based
For assay [1], the system named is cytosolic and nuclear ERK. Briefly: FRET assays of cytosolic and nuclear ERK in HEK293 cells. Particulars: UBO-QIC 100 nM, G66983 1 μM; for trypsin-stimulated activation of cytosolic ERK: AG1478 1 μM. As for the experimental part:
Trypsin-induced ERK signaling mediated by endosomal PAR2 signaling was investigated in HEK293 cells expressing Flag-PAR2-HA11 and FRET biosensors for cytosolic and nuclear ERK (CytoEKAR, NucEKAR), plasma membrane and cytosolic PKC (pmCKAR, CytoCKAR), and plasma membrane and cytosolic cAMP (pmEpac, CytoEpac). […] I-343 (10 μM) but not SCH530348 (100 nM) inhibited trypsin activation of cytosolic and nuclear ERK (FIG. 5G). PS2 and DynK44E inhibited trypsin-stimulated activation of cytosolic and nuclear ERK when compared to PS2 inact and DynWT controls (FIG. 5H, 5I, 17G-J). AG1478 (1 μM), an inhibitor of EGF receptor tyrosine kinase (Levitzki, A. & Gazit, A. Science 1995, 267(5205): 1782-1788), UBO-QIC (100 nM), which inhibits Gαq and certain Gβγ signals ([…]), and G66983 (1 μM), which inhibits all isoforms of PKC (Gschwendt, M, et al., FEBS Lett 1996, 392(2): 77-80), suppressed trypsin-stimulated activation of cytosolic ERK (FIGS. 5J and 17K).
HEK293 cells were cultured in DMEM supplemented with 10% (v/v) FBS (5% CO2, 37° C.). When necessary serum restriction was achieved by replacing culture medium with DMEM containing 0.5% FBS overnight. Cells were transiently transfected using polyethylenimine (PEI) (1:6 DNA:PEI).
HEK293 cells were transiently transfected in 10 cm dishes (˜50% confluency) with Flag-PAR2-HA (2.5 μg) and FRET biosensors CytoEKAR or NucEKAR (2.5 μg) (Jensen, D. D. et al., Sci Transl Med. 2017, 9(392), eaal3447; Thomsen, A. R. B., et al., Cell 2016, 166(4): 907-919). In experiments examining the role of dynamin, cells were transfected with FLAG-PAR2-HA (1.25 μg), FRET biosensor (1.25 μg) and either DynWT-HA, DynK44E-HA or pcDNA3.1 (2.5 μg). At 24 h after transfection, cells were seeded on ViewPlate-96 well plates (PerkinElmer). FRET was assessed 72 h post-transfection, following overnight serum restriction. Cells were equilibrated in HBSS-HEPES (30 min, 37° C.). FRET was measured using a PHERAstar FSX Microplate Reader (BMG LabTech). For CFP/YFP emission ratio analysis, cells were sequentially excited using a CFP filter (425/10 nm) with emission measured using YFP (550/50 nm) and CFP (490/20 nm) filters. FRET was measured before and after stimulation with trypsin (10 nM), NE (100 nM), CS (100 nM), phorbol 12,13-dibutyrate, PDBu (positive control, 1 μM), or vehicle. FRET ratios (donor/acceptor intensity for EKAR, or acceptor/donor intensity for CKAR and Epac) were calculated and corrected to baseline and vehicle treatments to determine ligand-induced FRET (ΔFRET). Treatment effects were determined by comparison of area under the curve values. Signalling inhibitors were dissolved in HBSS-HEPES. PS2 and PS2 inact were dissolved in HBSS-HEPES+1% DMSO. Cells were incubated with UBO-QIC (100 nM), AG1478 (1 μM), G66983 (1 μM), PS2 or PS2 inact (30 μM) or vehicle (30 min preincubation, inclusion throughout).

Assay [2] relates to mouse DRG neurons. In words: Patch clamp rheobase of DRG neurons: protease-induced hyperexcitability of nociceptors. Particulars: PD98059 50 μM, GF109203X 10 μM.
For assay [3], the system named is mouse DRG neurons. In words: Patch clamp rheobase of DRG neurons: IBS-D biopsy supernatant-induced hyperexcitability. Particulars: I-343 10 μM, Dy4 30 μM, PD98059 50 μM. Here is the method:
An investigation as whether proteases from mucosal biopsies of IBS patients cause a persistent hyperexcitability of nociceptors was conducted by a mechanism that entails endosomal signaling of PAR2. Biopsies of colonic mucosa from patients with diarrhea-predominant IBS (IBS-D) or healthy control (HC) subjects were placed in culture medium (24 h, 37° C.). Mouse DRG neurons were then exposed to biopsy supernatants (30 min, 37° C.) and washed. Rheobase was measured 30 min after washing to assess persistent hyperexcitability. Supernatants of biopsies from IBS-D patients caused a persistent decrease in rheobase, consistent with hyperexcitability, when compared to supernatants from HC subjects (rheobase at 30 min: HC, 78.33±4.41 pA, 12 neurons, supernatant from 4 HC; IBS-D, 54.55±4.74 pA, 11 neurons, supernatant from 4 IBS-D; P<0.05; ANOVA, Tukey's multiple comparisons test) (FIG. 6A, B). I-343 (10 μM), Dy4 (dynamin inhibitor, 30 μM) and PD98059 (MEK1 inhibitor, 50 μM) abolished IBS-D-induced hyperexcitability of nociceptors (FIG. 6A-D).
The Queen's University Human Ethics Committee approved human studies. All subjects gave informed consent. Endoscopic biopsies were obtained from the descending colon of 13 adult IBS-D patients (12 female) diagnosed using ROME III criteria for diarrhea predominant IBS and of 12 health controls. All IBS patients had symptoms greater than 1 year and most were greater than 5 years. Celiac disease was excluded by blood test and patients over 40 years with daily diarrhea were biopsied at the time of colonoscopy to exclude microscopic colitis. […] Biopsies (8 samples per patient) were incubated in 250 μl of RPMI medium containing 10% fetal calf serum, penicillin/streptomycin and gentamicin/amphotericin B (95% O2/5% […], 24 h, 37° C.). Supernatants were stored at −80° C. Supernatants from 4-6 patients were pooled and studied in individual experiments.
DRG innervating the colon (T9-T13) were collected from C57BL/6 mice. Ganglia were digested by incubation in collagenase IV (1 mg/ml, Worthington) and dispase (4 mg/ml, Roche) (10 min, 37° C.). DRG were triturated with a fire-polished Pasteur pipette, and further digested (5 min, 37° C.). Neurons were washed, plated onto laminin- (0.017 mg/ml) and poly-D-lysine- (2 mg/ml) coated glass coverslips, and were maintained in F12 medium containing 10% fetal calf serum, penicillin and streptomycin (95% air, 5% CO2, 16 h, 37° C.) until retrieval for electrophysiological studies.
Small-diameter (<30 pF capacitance) neurons were studied because they display characteristics of nociceptors (Valdez-Morales E. E. et al., Am J Gastroenterol 2013, 108(10): 1634-1643). Changes in excitability were quantified by measuring rheobase. Whole-cell perforated patch-clamp recordings were made using Amphotericin B (240 μg/ml, Sigma Aldrich) in current clamp mode at room temperature. The recording chamber was perfused with external solution at 2 ml/min. Recordings were made using Multiclamp 700B or Axopatch 200B amplifiers, digitized by Digidata 1440A or 1322A, and processed using pClamp 10.1 software (Molecular Devices). Solutions had the composition (mM): pipette—K-gluconate 110, KC130, HEPES 10, MgCl2 1, CaCl2 2; pH 7.25 with 1 M KOH; external—NaCl 140, KCl 5 HEPES 10, glucose 10, MgCl2 1, CaCl2 2; pH to 7.3-7.4 with 3 M NaOH. […] Neurons were also preincubated with trypsin (50 nM, 10 min), NE (390 nM, 30 min), CS (500 nM, 60 min), or vehicle (37° C.), and washed. Rheobase was measured at T 0 or T 30 min after washing. To investigate mechanisms of protease-evoked effects, neurons were incubated with I-343 (100 nM, 300 nM, 10 μM, 30 min preincubation), SCH79797 (1 μM, 10 min), Dy4 (30 μM, 30 min), PS2 (15 μM, 30 min), PD98059 (50 μM, 30 min), GF109203X (10 μM, 30 min), or vehicle (preincubation and inclusion throughout). In experiments using the tripartite antagonist, neurons were preincubated with Compound 10 (30 μM, 60 min, 37° C.) or vehicle and washed. […]
(In general: Patch clamp records ionic current or voltage across a cell membrane.)

Starred links: 1 amine or outer side, 2 acyl side, 3 side chain; linkers in the order of their positions; H or OH if unused. Positions of bridges follow the written chain, without caps; N, C: chain ends. Non-standard residues stand in square brackets, D forms with d. Residues, ends and D or L forms follow the SMILES beside them. *: point of attachment. Leu(3R-OH,Nα-propionyl) = CCC(=O)N[C@H](C(=O)*)[C@H](O)C(C)C; X1 = CC(C)[C@@H](O[*:3])[C@H](N[*:1])C(=O)[*:2]; NMeT = CN[C@H](C(=O)O)[C@@H](C)O; dPhLac = O=C(O)[C@H](O)Cc1ccccc1; NMeA = CN[C@@H](C)C(=O)O; NMeDha = C=C(NC)C(=O)O

`COc1ccc2c(c1)c(C1=C(c3c[nH]c4ccccc34)C(=O)NC1=O)cn2CCCN(C)C` [Compound G66983]: in assay [1], the “trypsin-stimulated activation of cytosolic ERK” value was “suppressed” and the “trypsin-stimulated activation of nuclear ERK” value was “inhibited”.

Turning to `COc1cccc(-c2cc(=O)c3ccccc3o2)c1N` [PD98059], in the assay on mouse DRG neurons [2], the initial trypsin-induced hyperexcitability result was “did not affect” and the persistent trypsin-induced hyperexcitability result is given as “prevented”. In the assay on mouse DRG neurons [3], the “IBS-D-induced hyperexcitability of nociceptors” value is given as “abolished” and the “rheobase of neurons exposed to HC supernatant” value is “no effect”.

For the compound `C=C1C(=O)N[C@@H](C)C(=O)N(C)[C@@H](C)C(=O)N[C@@H]([C@H](OC(=O)[C@@H](NC(=O)CC)[C@H](O)C(C)C)C(C)C)C(=O)N(C)[C@@H]([C@@H](C)OC)C(=O)O[C@H](C(C)C)[C@H](NC(C)=O)C(=O)O[C@H](Cc2ccccc2)C(=O)N1C` [UBO-QIC] (Ac-[X1][dPhLac][NMeDha]A[NMeA][X1](Leu(3R-OH,Nα-propionyl))[NMeT](Me); ester 1-C), in assay [1], the “trypsin-stimulated activation of cytosolic ERK” value is given as “suppressed” and the “trypsin-stimulated activation of nuclear ERK” value is given as “inhibited”.
